Laboratory results: ChEMBL document CHEMBL1201862, “PubChem BioAssay data set” (2004)
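These data come from cells grown in 96-well plates and exposed to compound for 48 hours at five concentrations. GI50 = concentration required for 50% inhibition of growth.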 Active and inactive are the calls of the source. Cut-off read from the data, not from the text of the source: active = GI50 up to about 1.1 µM and inactive = higher.

What was measured:
Experiment in all cases: NCI anticancer screen, dose series, 48 h
[1] = system: SK-MEL-5
[2] = system: CAKI-1
[3] = system: IGROV-1
[4] = system: HT-29
[5] = system: LOX IMVI
[6] = system: OVCAR-4
[7] = system: T47D
[8] = system: MOLT-4
[9] = system: SK-OV-3
[10] = system: NCI-H226
[11] = system: HOP-92
[12] = system: SF-539
[13] = system: DU-145
[14] = system: BT-549
[15] = system: HOP-62
[16] = system: OVCAR-5
[17] = system: SR
[18] = system: UACC-62
[19] = system: MDA-N
[20] = system: RXF 393

Structure (SMILES)	GI50 [1]	GI50 [2]	GI50 [3]	GI50 [4]	GI50 [5]	GI50 [6]	GI50 [7]	GI50 [8]	GI50 [9]	GI50 [10]	GI50 [11]	GI50 [12]	GI50 [13]	GI50 [14]	GI50 [15]	GI50 [16]	GI50 [17]	GI50 [18]	GI50 [19]	GI50 [20]
COC(=O)c1ccccc1OCc1cc(=O)oc2ccc(C)cc12	> 100 µM (inactive)	52.5 µM (inactive)	64.7 µM (inactive)	49.5 µM (inactive)	> 69.2 µM (inactive)	20 µM (inactive)	4.7 µM (inactive)	> 100 µM (inactive)	63.8 µM (inactive)	90.4 µM (inactive)	24 µM (inactive)	20.2 µM (inactive)	> 100 µM (inactive)	18.1 µM (inactive)	20 µM (inactive)	> 100 µM (inactive)	> 100 µM (inactive)	> 39.2 µM (inactive)	> 100 µM (inactive)	–
CO[P@@]1(=O)O[C@@H](c2ccccc2)[C@H](O)[C@]1(O)c1ccccc1	> 100 µM (inactive)	> 100 µM (inactive)	> 100 µM (inactive)	34 µM (inactive)	> 100 µM (inactive)	> 100 µM (inactive)	> 100 µM (inactive)	> 100 µM (inactive)	> 100 µM (inactive)	> 100 µM (inactive)	> 100 µM (inactive)	> 100 µM (inactive)	> 100 µM (inactive)	> 100 µM (inactive)	–	–	> 100 µM (inactive)	> 100 µM (inactive)	> 100 µM (inactive)	> 100 µM (inactive)
CC[C@H](C)C1=C(O)[N@+]2([O-])Oc3ccc(-c4c(O)c(O)c(-c5ccc(O)cc5)c(OC(C)=O)c4OC(C)=O)cc3O[C@]2([C@@H](C)CC)C(=O)N1O	19 µM (inactive)	28.8 µM (inactive)	6.4 µM (inactive)	15.7 µM (inactive)	22.4 µM (inactive)	11.6 µM (inactive)	> 50 µM (inactive)	16.3 µM (inactive)	15.9 µM (inactive)	–	6.52 µM (inactive)	18 µM (inactive)	33.3 µM (inactive)	25.6 µM (inactive)	30.1 µM (inactive)	> 50 µM (inactive)	23.5 µM (inactive)	17.4 µM (inactive)	29.2 µM (inactive)	> 50 µM (inactive)
S=C(N/N=C/c1ccccn1)Nc1ccc(Cl)cc1	0.11 µM (active)	< 0.0125 µM (active)	0.0933 µM (active)	0.0426 µM (active)	0.06 µM (active)	0.689 µM (active)	0.0169 µM (active)	< 0.01 µM (active)	0.0378 µM (active)	0.0845 µM (active)	0.282 µM (active)	0.364 µM (active)	0.126 µM (active)	0.233 µM (active)	0.181 µM (active)	0.191 µM (active)	< 0.0218 µM (active)	0.114 µM (active)	0.933 µM (active)	–
CC1=C(C#N)C(=O)N(/N=C/c2ccc(Cl)cc2)C(=O)/C1=c1\o/c(=C2/C(=O)N(/N=C/c3ccc(Cl)cc3)C(=O)C(C#N)=C2C)c2nccnc12	96.6 µM (inactive)	> 100 µM (inactive)	> 100 µM (inactive)	> 100 µM (inactive)	> 100 µM (inactive)	57.5 µM (inactive)	> 100 µM (inactive)	88.3 µM (inactive)	> 100 µM (inactive)	78.2 µM (inactive)	> 100 µM (inactive)	> 100 µM (inactive)	> 100 µM (inactive)	> 100 µM (inactive)	–	> 100 µM (inactive)	80.5 µM (inactive)	> 100 µM (inactive)	77.3 µM (inactive)	19.5 µM (inactive)
CN(C(=O)c1ccc2c(c1)sc1c(=O)n(C)c3ccccc3c12)c1ccccc1	> 100 µM (inactive)	> 100 µM (inactive)	> 100 µM (inactive)	> 100 µM (inactive)	> 100 µM (inactive)	> 100 µM (inactive)	> 100 µM (inactive)	> 100 µM (inactive)	> 100 µM (inactive)	> 100 µM (inactive)	> 100 µM (inactive)	> 100 µM (inactive)	> 100 µM (inactive)	> 100 µM (inactive)	–	> 100 µM (inactive)	> 100 µM (inactive)	> 100 µM (inactive)	> 100 µM (inactive)	> 100 µM (inactive)
O=C(NCCC1([N+](=O)[O-])CCN(C(=O)c2ccccc2)CC1)c1ccccc1	37.2 µM (inactive)	42.3 µM (inactive)	> 100 µM (inactive)	45.6 µM (inactive)	–	52 µM (inactive)	> 100 µM (inactive)	> 100 µM (inactive)	> 100 µM (inactive)	> 100 µM (inactive)	< 0.01 µM (active)	> 100 µM (inactive)	> 100 µM (inactive)	> 100 µM (inactive)	–	> 100 µM (inactive)	> 100 µM (inactive)	57.4 µM (inactive)	47.1 µM (inactive)	67 µM (inactive)
CCOC(=O)c1cc2c3c(c(C(C)=O)c(O)c2[nH]1)N(CC(C)CC)CC3 (stereo not drawn)	–	64.9 µM (inactive)	> 100 µM (inactive)	> 100 µM (inactive)	42.2 µM (inactive)	43.1 µM (inactive)	21.9 µM (inactive)	26.3 µM (inactive)	60.8 µM (inactive)	41.5 µM (inactive)	45.3 µM (inactive)	70 µM (inactive)	> 100 µM (inactive)	45.5 µM (inactive)	–	–	27.4 µM (inactive)	71.6 µM (inactive)	35.7 µM (inactive)	34.6 µM (inactive)
C/C(=N/NC(=O)c1ccccc1Nc1ccccc1C(=O)N/N=C(\C)c1ccc(C)cc1)c1ccc(C)cc1	42.1 µM (inactive)	> 100 µM (inactive)	> 100 µM (inactive)	> 100 µM (inactive)	–	32.1 µM (inactive)	> 100 µM (inactive)	37.8 µM (inactive)	> 100 µM (inactive)	> 100 µM (inactive)	> 100 µM (inactive)	–	> 100 µM (inactive)	> 100 µM (inactive)	11.4 µM (inactive)	> 100 µM (inactive)	> 100 µM (inactive)	31.8 µM (inactive)	> 100 µM (inactive)	12.2 µM (inactive)
CC(=O)OCC(OC(C)=O)C(OC(C)=O)C(/C=N\Nc1nc2ccccc2c(=O)[nH]1)=N\Nc1nc2ccccc2c(=O)[nH]1 (stereo not drawn)	> 100 µM (inactive)	> 100 µM (inactive)	> 100 µM (inactive)	> 100 µM (inactive)	> 100 µM (inactive)	–	47 µM (inactive)	> 100 µM (inactive)	> 100 µM (inactive)	> 100 µM (inactive)	> 100 µM (inactive)	> 100 µM (inactive)	> 100 µM (inactive)	> 100 µM (inactive)	> 100 µM (inactive)	> 100 µM (inactive)	63.8 µM (inactive)	> 100 µM (inactive)	> 100 µM (inactive)	> 100 µM (inactive)
CCCCC(=O)c1c(O)ccc2c(C)cc(=O)oc12	53.5 µM (inactive)	68.9 µM (inactive)	95.5 µM (inactive)	> 100 µM (inactive)	93.8 µM (inactive)	69.8 µM (inactive)	14.8 µM (inactive)	77.1 µM (inactive)	–	> 100 µM (inactive)	36.3 µM (inactive)	> 100 µM (inactive)	64.9 µM (inactive)	37.6 µM (inactive)	> 100 µM (inactive)	> 100 µM (inactive)	40.7 µM (inactive)	> 100 µM (inactive)	> 100 µM (inactive)	49.1 µM (inactive)
N#Cc1c2ccc([N+](=O)[O-])cc2c(=O)n2c1[nH]c1ccc(C(F)(F)F)cc12	29.4 µM (inactive)	60.8 µM (inactive)	34.2 µM (inactive)	11.2 µM (inactive)	6.56 µM (inactive)	24.8 µM (inactive)	32.4 µM (inactive)	14.5 µM (inactive)	41.9 µM (inactive)	14.3 µM (inactive)	12.9 µM (inactive)	> 100 µM (inactive)	44.4 µM (inactive)	25.2 µM (inactive)	26.9 µM (inactive)	14.3 µM (inactive)	4.07 µM (inactive)	42.7 µM (inactive)	> 64.9 µM (inactive)	–
C=C=C(C)C(=O)N(C(C)C)C(C)C	> 100 µM (inactive)	–	> 100 µM (inactive)	> 100 µM (inactive)	> 100 µM (inactive)	> 100 µM (inactive)	> 100 µM (inactive)	> 100 µM (inactive)	> 100 µM (inactive)	> 100 µM (inactive)	> 100 µM (inactive)	–	> 100 µM (inactive)	> 100 µM (inactive)	> 100 µM (inactive)	> 100 µM (inactive)	> 100 µM (inactive)	> 100 µM (inactive)	> 100 µM (inactive)	–
CC1C2CC(CC2(C)O)C1(C)C (stereo not drawn)	> 100 µM (inactive)	> 100 µM (inactive)	> 100 µM (inactive)	> 100 µM (inactive)	–	> 100 µM (inactive)	> 100 µM (inactive)	> 100 µM (inactive)	> 100 µM (inactive)	> 100 µM (inactive)	> 100 µM (inactive)	> 100 µM (inactive)	> 100 µM (inactive)	> 100 µM (inactive)	> 100 µM (inactive)	> 100 µM (inactive)	> 100 µM (inactive)	> 100 µM (inactive)	> 100 µM (inactive)	> 100 µM (inactive)
COc1ccc2c(c1)CC1C3(CCCCC23)CC[N+]1(C)C (stereo not drawn)	> 100 µM (inactive)	> 100 µM (inactive)	> 100 µM (inactive)	> 100 µM (inactive)	> 100 µM (inactive)	> 100 µM (inactive)	> 100 µM (inactive)	> 100 µM (inactive)	> 100 µM (inactive)	> 100 µM (inactive)	87.5 µM (inactive)	–	> 100 µM (inactive)	24.9 µM (inactive)	> 100 µM (inactive)	> 100 µM (inactive)	> 100 µM (inactive)	> 100 µM (inactive)	> 100 µM (inactive)	> 100 µM (inactive)
